According to ChEMBL document CHEMBL1177729, “Nortriterpene lactones from the fruits of Schisandra arisanensis” (2010):

Tests used:
Neutrophil = assay: Antiinflammatory activity in human neutrophils assessed as inhibition of FMLP/CB-induced elastase release at 10 ug/mL; assay type: functional
Human alphaherpesvirus 1 = assay: Antiviral activity against HSV1 KOS infected in african green monkey Vero cells assessed as inhibition of viral plaque formation in […] cells at 100 uM after 5 days by plaque reduction assay; assay type: functional; settings: Human alphaherpesvirus 1, KOS, 120 h

## O=c1c(-c2ccc(O)cc2)coc2cc(O)cc(O)c12 [GENISTEIN]
Neutrophil
  inhibition at 10 µg/mL: 51.6%

## C[C@@H]1C(=O)O[C@H]2[C@@H]1O[C@]13O[C@@]4(CC[C@]5(C)C(=O)[C@H](C)[C@H]2[C@]15C)C[C@]12OC(=O)C[C@@]1(O)OC(C)(C)[C@@H]2C[C@H](O)[C@H]4C3=O [SCHINDILACTONE E]
Human alphaherpesvirus 1
  inhibition at 100 µM: 30%

## C[C@H]([C@H](O)[C@@H]1C[C@@H](C)C(=O)O1)[C@@H]1[C@H]2[C@]1(C)CC[C@@]13O[C@]2(O)C(=O)[C@@H]1CC[C@H]1C(C)(C)O[C@@H]2[C@@H](O)C(=O)O[C@@]21[C@H]3O
Neutrophil
  inhibition at 10 µg/mL: 18.5%

## C[C@H]1C(=O)[C@@]2(C)CC[C@]34C[C@]56OC(=O)C[C@@]5(O)OC(C)(C)[C@@H]6C[C@H](O)[C@H]3C(=O)[C@@]3(O[C@H]5[C@H](OC(=O)[C@]5(C)O)[C@@H]1[C@]32C)O4 [ARISANLACTONE B]
Human alphaherpesvirus 1
  inhibition at 100 µM: 25%
Neutrophil
  inhibition at 10 µg/mL: 22.2%
